Test results reported in patent EP4775577A1, “RAS INHIBITOR” (Tyligand Bioscience (Shanghai) Limited, priority 2023, dated 2025).
Like-named read-outs stand apart in the source and are kept apart here.

Assays:
[1] = tested on: KRAS G12V mutant NCI-H727 cells; assay: Proliferation inhibition of NCI-H727 cells, 3D CellTiter-Glo assay (Method B); assay type: cell-based, human; conditions: Homo sapiens, NCI-H727, 120 h, Method B; 3D culture with 0.65% methylcellulose, 5 days, CTG; read-out: NCI-H727 IC50/nM
How it was run: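 Cells grown in 3D medium (RPMI-1640, 10% FBS, 0.65% methylcellulose) overnight, then treated 5 days at 37 °C, 5% CO2 with 9 threefold dilutions from 10 µM top working concentration, duplicate wells. CellTiter-Glo luminescence read; IC50 (nM) fitted by dose-response-inhibition equation.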

[2] = tested on: KRAS G12D mutant AGS cells; assay: Proliferation inhibition of AGS cells, CellTiter-Glo assay; assay type: cell-based, human; conditions: 3 days, CTG, read-out: AGS IC50/nM
How it was run: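 AGS cells at 1500 cells/well in F12K + 10% FBS were exposed for 3 days at 37°C to nine 3-fold dilutions from 10 µM top concentration, in duplicate. Viability read by CellTiter-Glo luminescence; IC50 (nM) from dose-response-inhibition fitting.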

| Structure (SMILES) | IC50 [1] [nM] | IC50 [2] [nM] | IC50 ([2]; Homo sapiens, AGS, 72 h) [nM] |
| --- | --- | --- | --- |
| CN1CC/C(=C\F)[C@](C)(COc2nc(N3CCCn4nc(C(=O)N(C)C)c(Cl)c4C3)c3cc(C4CC4)c(-c4c(F)ccc5sc(N)c(C#N)c45)c(F)c3n2)C1 (single isomer, unassigned) [Example 161A] | 4.3 | 2.4 |  |
| [2H]C([2H])([2H])N1CC/C(=C\F)[C@](C)(COc2nc(N3CCOC[C@@](C)(O)C3)c3cc(Cl)c(-c4cccc5sc(N)c(C#N)c45)c(F)c3n2)C1 [Example 84, 2-Amino-4-(6-chloro-8-fluoro-2-(((S,E)-4-(fluoromethylene)-3-methyl-1-(methyl-d3)piperidine-3-yl)methoxy)-4-((S)-6-hydroxy-6-methyl-1,4-oxazacycloheptane-4-yl)quinazoline-7-yl)benzo[b]thiophene-3-carbonitrile] | 77.7 |  | 59 |
| CCc1cc2c(N3CCCn4nc(C(=O)N(C)C)c(Cl)c4C3)nc(OC[C@]3(C)CN(C)CC/C3=C\F)nc2c(F)c1-c1ncc(F)c2sc(N)c(C#N)c12 [Example 169A] | 59.9 |  | 14.6 |
| [2H]C([2H])([2H])N1CCC(=CF)C(C)(COc2nc(N3Cc4cc(C(=O)N(C)C)nn4CCC3C)c3cc(Cl)c(-c4c(F)ccc5sc(N)c(C#N)c45)c(Cl)c3n2)C1 (centres unmarked) [Example 197] | 2.1 |  | 3 |
| CCc1cc2c(N3Cc4c(Cl)c(C(=O)N(C)C)nn4CCC3C)nc(OCC3(C)CN(C)CCC3=CF)nc2c(F)c1-c1c(F)ccc2sc(N)c(C#N)c12 (centres unmarked) [Example 194] | < 1.5 |  | < 1.5 |
| Cc1c(-c2ncc(F)c3sc(N)c(C#N)c23)c(Cl)cc2c(N3Cc4cc(C(=O)N(C)C)nn4CC[C@@H]3C)nc(OC[C@]3(C)CN(C)CC/C3=C\F)nc12 [Example 171A] | 4.1 |  | 4.7 |
| COCc1cc2c(N3Cc4cc(C(=O)N(C)C)nn4CC[C@@H]3C)nc(OC[C@]3(C)CN(C)CC/C3=C\F)nc2c(F)c1-c1c(F)ccc2sc(N)c(C#N)c12 (single isomer, unassigned) [Example 226A] | 39.8 |  | 19.7 |
| CN1CC/C(=C\F)[C@](C)(COc2nc(N3CCCn4nc(C(=O)N(C)C)cc4C3)c3cc(C(F)(F)F)c(-c4cccc5sc(N)c(C#N)c45)c(F)c3n2)C1 [Example 8, 5-(7-(2-Amino-3-cyanobenzo[b]thiophene-4-yl)-8-fluoro-2-(((S,E)-4-(fluoromethylene)-1,3-dimethylpiperidine-3-yl)methoxy)-6-(trifluoromethyl)quinazoline-4-yl)-N,N-dimethyl-5,6,7,8-tetrahydro-4H-pyrazolo[1,5-a][1,4]diazepine-2-formamide] | 21.3 |  | 8.1 |
| CCc1cc2c(N3Cc4cc(C(=O)N(C)C)nn4CC[C@@H]3C)nc(OC[C@]3(C)CN(C)CC/C3=C\F)nc2c(F)c1-c1c(C)ccc2[nH]ncc12 (single isomer, unassigned) [Example 172A] | 419 |  | 199 |
| [2H]C([2H])([2H])N1CCC(=CF)C(C)(COc2nc(N3Cc4cc(C(=O)N(C([2H])([2H])[2H])C([2H])([2H])[2H])nn4CCC3C)c3cc(CC)c(-c4c(F)ccc5sc(N)c(C#N)c45)c(F)c3n2)C1 (single isomer, unassigned) [Example 185A] | < 1.5 |  | < 1.5 |
| [2H]C([2H])([2H])N1CCC(=CF)C(C)(COc2nc(N3Cc4cc(C(=O)N5CCOCC5)nn4CCC3C)c3cc(CC)c(-c4c(F)ccc5sc(N)c(C#N)c45)c(F)c3n2)C1 (centres unmarked) [Example 263A] | 2.5 |  | 2.5 |
| CCN1CC/C(=C\F)[C@](C)(COc2nc(N3Cc4c(COC)c(C(=O)N(C)C)nn4CC[C@@H]3C)c3cc(Cl)c(-c4ncc(F)c5sc(N)c(C#N)c45)c(F)c3n2)C1 [Example 271A] | 8.7 |  | 9.3 |
| [2H]C([2H])([2H])N1CC/C(=C\F)[C@](C)(COc2nc(N3Cc4c(C)c(C(=O)N(C)C)nn4CC[C@@H]3C)c3cc(CC)c(-c4c(F)ccc5sc(N)c(C#N)c45)c(F)c3n2)C1 (single isomer, unassigned) [Example 183A] | < 1.5 |  | < 1.5 |
